# Columns and labels:
# barnyardgrass [1] = test: Test A pre-/postemergence herbicide test; format: in vivo, Echinochloa crus-galli
# Summary of the method: (§1)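 Planted in loam–sand blend; treated the same day preemergence by directed soil spray, while separately grown plants at one- to two-leaf stage got postemergence spray. Compared visually with untreated controls after approximately 10 days; 100 means complete control.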
# giant foxtail = test: Test A pre-/postemergence herbicide test; format: in vivo, Setaria faberii
# Summary of the method: as §1
# corn = test: Test A pre-/postemergence herbicide test; format: in vivo, Zea mays; settings: Postemergence
# Summary of the method: as §1
# rice = test: Test B flooded paddy test; format: in vivo, Oryza sativa; settings: 500 g ai/ha, Flood; scale of 0 to 100 where 0 is no effect and 100 is complete control
# Summary of the method: (§2)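 Plants were grown to the 2-leaf stage, then pots were flooded to 3 cm above the soil and compound was applied directly into the paddy water, with that depth held throughout. After 13 to 15 days in a greenhouse, injury was rated visually against untreated controls on a 0 to 100 scale (100 = complete control).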
# sedge, umbrella = test: Test B flooded paddy test; format: in vivo, Cyperus difformis; settings: 500 g ai/ha, Flood; scale of 0 to 100 where 0 is no effect and 100 is complete control
# Summary of the method: as §2
# ducksalad = test: Test B flooded paddy test; format: in vivo, Heteranthera limosa; settings: 500 g ai/ha, Flood; scale of 0 to 100 where 0 is no effect and 100 is complete control
# Summary of the method: as §2
# barnyardgrass [2] = test: Test B flooded paddy test; format: in vivo, Echinochloa crus-galli; settings: 500 g ai/ha, Flood; scale of 0 to 100 where 0 is no effect and 100 is complete control
# Summary of the method: as §2
# blackgrass = test: Test C pre-/postemergence herbicide test; format: in vivo, Alopecurus myosuroides
# Summary of the method: (§3)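 Test compounds, formulated in a surfactant-containing non-phytotoxic solvent blend, are applied to seeded loam/sand soil (preemergence) and to young plants at the 1- to 4-leaf stage in peat-based medium (postemergence). Plants stay 13 to 15 days under greenhouse conditions, then are scored visually relative to controls, 0 = no effect, 100 = complete control.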
# crabgrass, large = test: Test C pre-/postemergence herbicide test; format: in vivo, Digitaria sanguinalis
# Summary of the method: as §3
# morningglory = test: Test C pre-/postemergence herbicide test; format: in vivo, Ipomoea coccinea
# Summary of the method: as §3
# ragweed = test: Test C pre-/postemergence herbicide test; format: in vivo, Ambrosia elatior
# Summary of the method: as §3
# soybean = test: Test C pre-/postemergence herbicide test; format: in vivo, Glycine max
# Summary of the method: as §3
# barnyardgrass [3] = test: Test C pre-/postemergence herbicide test; format: in vivo, Echinochloa crus-galli
# Summary of the method: as §3
# [4] = Postemergence, 125 g ai/ha, visual rating on 0 to 100 scale (0 no effect, 100 complete control), approx. 10 days
# [5] = Postemergence, 500 g ai/ha, 0 to 100 scale (0 no effect, 100 complete control)
# [6] = Preemergence, 125 g ai/ha, 0 to 100 scale where 0 is no effect and 100 is complete control
# [7] = Preemergence, 500 g ai/ha, visual rating on 0 to 100 scale (0 no effect, 100 complete control)
# [8] = Postemergence, 31 g ai/ha, scale 0 to 100 (0 no effect, 100 complete control)
# [9] = Postemergence, 62 g ai/ha, scale 0 (no effect) to 100 (complete control)
# [10] = Postemergence, 125 g ai/ha, scale 0 to 100 (0 no effect, 100 complete control)
# [11] = Postemergence, 250 g ai/ha, scale 0 to 100 (0 no effect, 100 complete control)
# [12] = Preemergence, 31 g ai/ha, scale 0 to 100, 0 is no effect and 100 is complete control
# [13] = Preemergence, 62 g ai/ha, scale 0 to 100 (0 no effect, 100 complete control)
# [14] = Preemergence, 125 g ai/ha, scale 0 to 100
smiles,measurement,setting,value
O=C1NCC(c2cccc(C(F)(F)F)c2)C1C(=O)Nc1cccc(Cl)c1F (stereo not shown) [Compound 316],"Plant response rating, Barnyardgrass",barnyardgrass [1]; [4],80
same,"Plant response rating, Barnyardgrass",barnyardgrass [1]; [5],90
same,"Plant response rating, Barnyardgrass",barnyardgrass [1]; [6],80
same,Barnyardgrass plant response rating,barnyardgrass [1]; [7],90
same,"Plant response rating, Foxtail, Giant",giant foxtail; [4],90
same,"Plant response rating, Foxtail, Giant",giant foxtail; [5],90
same,"Plant response rating, Foxtail, Giant",giant foxtail; [6],90
same,"Foxtail, Giant plant response rating",giant foxtail; [7],90
same,"Plant response rating, Corn","corn; 125 g ai/ha, visual rating on 0 to 100 scale (0 no effect, 100 complete control), approx. 10 days",60
same,"Plant response rating, Corn","corn; 500 g ai/ha, 0 to 100 scale (0 no effect, 100 complete control)",80
same,"Plant response rating, Rice",rice,0
same,"Plant response rating, Sedge, Umbrella","sedge, umbrella",0
same,"Plant response rating, Ducksalad",ducksalad,100
same,"Plant response rating, Barnyardgrass",barnyardgrass [2],60
same,"Plant response rating, Blackgrass",blackgrass; [8],0
same,"Plant response rating, Blackgrass",blackgrass; [9],0
same,"Plant response rating, Blackgrass",blackgrass; [10],0
same,"Plant response rating, Blackgrass",blackgrass; [11],0
same,Blackgrass plant response rating,blackgrass; [12],0
same,Blackgrass plant response rating,blackgrass; [13],0
same,"Plant response rating, Blackgrass",blackgrass; [14],30
same,"Plant response rating (scale of 0 to 100), Blackgrass","blackgrass; Preemergence, 250 g ai/ha",60
same,"Plant response rating, Crabgrass, Large","crabgrass, large; [8]",0
same,"Plant response rating, Crabgrass, Large","crabgrass, large; [9]",50
same,"Plant response rating, Crabgrass, Large","crabgrass, large; [10]",60
same,"Plant response rating, Crabgrass, Large","crabgrass, large; [11]",70
same,"Crabgrass, Large plant response rating","crabgrass, large; [12]",90
same,"Crabgrass, Large plant response rating","crabgrass, large; [13]",95
same,"Plant response rating, Crabgrass, Large","crabgrass, large; [14]",95
same,"Plant response rating (scale of 0 to 100), Crabgrass, Large","crabgrass, large; Preemergence, 250 g ai/ha",98
same,"Plant response rating, Morningglory",morningglory; [8],55
same,"Plant response rating, Morningglory",morningglory; [9],0
same,"Plant response rating, Morningglory",morningglory; [10],10
same,"Plant response rating, Morningglory",morningglory; [11],10
same,Morningglory plant response rating,morningglory; [12],0
same,Morningglory plant response rating,morningglory; [13],0
same,"Plant response rating, Morningglory",morningglory; [14],25
same,"Plant response rating (scale of 0 to 100), Morningglory","morningglory; Preemergence, 250 g ai/ha",35
same,"Plant response rating, Ragweed",ragweed; [8],45
same,"Plant response rating, Ragweed",ragweed; [9],0
same,"Plant response rating, Ragweed",ragweed; [10],35
same,"Plant response rating, Ragweed",ragweed; [11],65
same,Ragweed plant response rating,ragweed; [13],0
same,"Plant response rating, Ragweed",ragweed; [14],10
same,"Plant response rating, Soybean",soybean; [8],0
same,"Plant response rating, Soybean",soybean; [9],0
same,"Plant response rating, Soybean",soybean; [10],0
same,"Plant response rating, Soybean",soybean; [11],0
same,Soybean plant response rating,soybean; [13],0
same,"Plant response rating, Soybean",soybean; [14],0
same,"Plant response rating, Barnyardgrass",barnyardgrass [3]; [8],10
same,"Plant response rating, Barnyardgrass",barnyardgrass [3]; [9],35
same,"Plant response rating, Barnyardgrass",barnyardgrass [3]; [10],60
same,"Plant response rating, Barnyardgrass",barnyardgrass [3]; [11],70
same,Barnyardgrass plant response rating,barnyardgrass [3]; [12],85
same,Barnyardgrass plant response rating,barnyardgrass [3]; [13],85
same,"Plant response rating, Barnyardgrass","barnyardgrass [3]; Preemergence, 125 g ai/ha, scale 0 to 100 (0 no effect, 100 complete control)",90
same,"Plant response rating (scale of 0 to 100; 0 is no effect, 100 is complete control), Barnyardgrass","barnyardgrass [3]; Preemergence, 250 g ai/ha",90

# Reference: patent publication US10294202B2, “Pyrrolidinones as herbicides” (FMC Corporation, priority 2013, dated 2019)
